Experimental data taken from article PMC8580050, “Improvement of the antimicrobial potency, pharmacokinetic and pharmacodynamic properties of albicidin by incorporation of nitrogen atoms” (Chemical Science, 2021).
Converted amounts (≈) assume the structure as drawn. Read-outs that look alike come from different tables or passages of the source.

Key:
E. coli DSM 1116 = assay: MIC determination (broth microdilution); format: cell-based, Escherichia coli; conditions: Escherichia coli, DSM1116
Method: (§1) 1.1.1 In vitro experiments
(§2) Determination of Minimal inhibitory concentrations (MIC)
(§3) Approved Standard M07-A9.1
(§4) CFU mL-1. […] Albicidin and […]
(§5) and serially diluted in DMSO (100%). […]
(§6) in 0.1 N HCL, respectively.
(§7) One row of each well plate served as a […]
(§8) sterility control (only MHB II-media). […]
(§9) adding 5 µL DMSO to several wells. […]
(§10) for growth inhibition by naked eye.
(§11) Microorganisms and Cell Cultures (DSMZ): […]

S. Typhimurium TA100 = assay: MIC determination (broth microdilution); format: cell-based, Salmonella typhimurium; conditions: Salmonella enterica; S. Typhimurium TA100; read-out: MIC
Method: as §1, §2, §3, §4, §5, §6, §7, §8, §9, §10, §11

B. subtilis DSM 10 = assay: MIC determination (broth microdilution); format: cell-based; conditions: Bacillus subtilis, DSM10; B. subtilis DSM 10; read-out: MIC
Method: as §1, §2, §3, §4, §5, §6, §7, §8, §9, §10, §11

E. coli BW25113 = assay: MIC determination (broth microdilution); format: cell-based; conditions: Escherichia coli
Method: as §1, §2, §3, §4, §5, §6, §7, §8, §9, §10, §11

M. luteus DSM1790 = assay: MIC determination (broth microdilution); format: cell-based, Micrococcus luteus; conditions: M. luteus DSM1790
Method: as §1, §2, §3, §4, §5, §6, §7, §8, §9, §10, §11

M. phlei DSM 750 = assay: MIC determination (broth microdilution); format: cell-based, Mycobacterium phlei; conditions: Mycolicibacterium phlei, DSM750; M. phlei DSM 750; read-out: MIC
Method: as §1, §2, §3, §4, §5, §6, §7, §8, §9, §10

[1] = system: E. coli DSM 1116 + 50% Human Serum; assay: MIC determination in presence of 50% human serum; format: cell-based; conditions: Escherichia coli, DSM1116; E. coli DSM 1116 + 50% Human Serum; read-out: MIC
Description: This investigation was completed by assessment of the antibacterial activity in presence of human plasma (50%) (Table 1), since high plasma protein binding can severely impair antibacterial activity and thus efficacy.
as §1, §2, §3, §4, §5, §6, §7, §8, §9, §10, §11

E. coli DNA gyrase = target: T1, E. coli DNA gyrase (Escherichia coli, UniProt P0AES4+P0AES6); assay: E. coli gyrase supercoiling inhibition assay; format: biochemical; set-up: key: ↑: for stronger inhibition; ≈: for equal inhibition; ↓: for diminished inhibition compared to albicidin 1; conditions: constant concentration of 45 nM, compared to albicidin 1
T1 construct: purchased inspiralis Limited, Norwich, UK
Method: Escherichia coli Gyrase Supercoiling Inhibition Assay
loaded on an agarose gel.
2-15. […] Addition of DNA
All derivatives were tested at a concentration of […]

[2] = system: E. coli (ciprofloxacin resistant clinical isolate); assay: microbe, parasite or virus in culture; format: cell-based, Escherichia coli; conditions: Escherichia coli
Method: as §1, §2, §3, §4, §5, §6, §7, §8, §9, §10, §11
(§12) Dr. Werner (Robert-Koch-Institut, Wernigerode, Germany): […]

[3] = system: E. coli (ciprofloxacin susceptible clinical isolate); assay: MIC, extended panel; format: cell-based; conditions: Escherichia coli
Method: as §1, §2, §3, §4, §5, §6, §7, §8, §9, §10, §11, §12

[4] = system: Salmonella Kentucky (ciprofloxacin susceptible clinical isolate); assay: MIC, extended panel; format: cell-based; conditions: Salmonella enterica
Method: as §1, §2, §3, §4, §5, §6, §7, §8, §9, §10, §11, §12

[5] = system: K. pneumoniae (ciprofloxacin resistant clinical isolate); assay: microbe, parasite or virus in culture; format: cell-based; conditions: Klebsiella pneumoniae
Method: as §1, §2, §3, §4, §5, §6, §7, §8, §9, §10, §11, §12

[6] = system: Salmonella Kentucky (ciprofloxacin resistant clinical isolate); assay: microbe, parasite or virus in culture; format: cell-based; conditions: Salmonella enterica
Method: as §1, §2, §3, §4, §5, §6, §7, §8, §9, §10, §11, §12

[7] = system: K. pneumoniae (ciprofloxacin susceptible clinical isolate); assay: MIC, extended panel; format: cell-based, Klebsiella pneumoniae; conditions: Klebsiella pneumoniae
Method: as §1, §2, §3, §4, §5, §6, §7, §8, §9, §10, §11, §12

[8] = system: S. aureus (ciprofloxacin resistant clinical isolate); assay: microbe, parasite or virus in culture; format: cell-based, Staphylococcus aureus; conditions: Staphylococcus aureus
Method: as §1, §2, §3, §4, §5, §6, §7, §8, §9, §10, §11, §12
(§13) for the following 11 pathogenic isolates: […]

[9] = system: S. aureus (ciprofloxacin susceptible clinical isolate); assay: MIC, extended panel; format: cell-based; conditions: Staphylococcus aureus
Method: as §1, §2, §3, §4, §5, §6, §7, §8, §9, §10, §11, §12, §13

[10] = system: A. baumannii (ciprofloxacin resistant isolate); assay: microbe, parasite or virus in culture; format: cell-based, Acinetobacter baumannii; conditions: Acinetobacter baumannii
Method: as §1, §2, §3, §4, §5, §6, §7, §8, §9, §10, §11, §12, §13

[11] = system: E. faecium (ciprofloxacin resistant clinical isolate); assay: microbe, parasite or virus in culture; format: cell-based; conditions: Enterococcus faecium
Method: as §1, §2, §3, §4, §5, §6, §7, §8, §9, §10, §11, §12, §13

[12] = system: P. aeruginosa (ciprofloxacin resistant clinical isolate); assay: microbe, parasite or virus in culture; format: cell-based; conditions: Pseudomonas aeruginosa
Method: as §1, §2, §3, §4, §5, §6, §7, §8, §9, §10, §11, §12, §13

[13] = system: P. aeruginosa (ciprofloxacin susceptible clinical isolate); assay: MIC, extended panel; format: cell-based, Pseudomonas aeruginosa; conditions: Pseudomonas aeruginosa
Method: as §1, §2, §3, §4, §5, §6, §7, §8, §9, §10, §11, §12, §13

in vitro = conditions: plasma, pH 7.4
Method: Determination of plasma stability
Human and murine plasma aliquots (Sigma-Aldrich, Taufkirchen, Germany) were thawed and subsequently centrifuged at 3000 rpm for 10 min at 4°C. Resulting supernatant was diluted in the same volume of phosphate buffer (pH 7.4) to obtain a plasma concentration of 50% (v/v). Stock solutions of […]
concentration of 20 µM (5% DMSO). Following incubation at 37°C ice-cold methanol containing 30% […]
were centrifuged at 4000 rpm for 20 min at 4°C and 100 µL of supernatant were directly transferred to a fresh MS-vial. Samples were analyzed by LC/MS-MS experiments. Quantification of remaining compounds was performed by an external calibration curve of standard solutions in the range of […]

DNA gyrase = conditions: read-out: half maximum inhibitory concentration (IC50); cited from earlier work
physchem = conditions: 20 °C, kinetic from dmso stock
[14] = system: E. faecium (ciprofloxacin susceptible clinical isolate); assay: microbe, parasite or virus in culture; conditions: Enterococcus faecium
[15] = Cell proliferation assay (HepG2 cells); conditions: human
Method: (§14) Cell proliferation assay (HepG2 cells)
(§15) The assay was performed by the company Eurofins (Taiwan). Cytotoxicity was representatively
(§16) according to a protocol by Ansar et al.27 This is in line with previously published cytotoxicity data on
(§17) GI = growth inhibition; TGI = total growth inhibition; LC = lethal concentration

HepG2 cells = assay: Cell proliferation assay (HepG2 cells); conditions: HepG2 cells
Method: as §14, §15, §16, §17

Gram-negative strains = assay: MIC, primary panel; format: cell-based; conditions: Salmonella enterica, TYPHIMURIUM
Method: as §1, §2, §3, §4, §5, §6, §7, §8, §9, §10
(§18) Microorganisms and Cell Cultures (DSMZ):
Mycobacterium phlei DSM 750
Salmonella typhimurium TA100 was kindly provided by Prof. Dr. Vera Meyer (Technische Universität […]
Brötz-Oesterheldt (Tübingen, Germany)/ Prof. Dr. Heisig (Hamburg, Germany)2 Escherichia coli WT (GK571)
Escherichia coli WT-3-1 (GK796) [gyrA (S83L, D87G)]
Escherichia coli MI (GK572) [gyrA (S83L)] […]
or by Prof. Dr. Werner (Robert-Koch-Institut, Wernigerode, Germany): […]

Gram-positive strains = assay: MIC, primary panel; format: cell-based
Method: as §1, §2, §3, §4, §5, §6, §7, §8, §9, §10, §18
Mycobacterium phlei DSM 750 […]
as §12

[16] = E. coli DSM 1116, read-out: MIC
[17] = Micrococcus luteus, read-out: MIC

SMILES	MIC (E. coli DSM 1116; [16]) [µg/mL]	MIC (S. Typhimurium TA100) [µg/mL]	MIC (B. subtilis DSM 10) [µg/mL]	MIC (E. coli BW25113) [µg/mL]	MIC (M. luteus DSM1790; [17]) [µg/mL]	MIC (M. phlei DSM 750) [µg/mL]	MIC [1] [µg/mL]	E. coli gyrase inhibition (E. coli DNA gyrase)	also measured
COc1c(NC(=O)c2ccc(NC(=O)[C@H](Cc3c[nH]nn3)NC(=O)c3ccc(NC(=O)/C(C)=C/c4ccc(O)cc4)cc3)cc2)ccc(C(=O)Nc2ccccc2)c1O [Compound 15]	1 (≈ 1.26 µM)	1 (≈ 1.26 µM)	2 (≈ 2.52 µM)	0.5 (≈ 0.629 µM)	1 (≈ 1.26 µM)	2 (≈ 2.52 µM)	≥ 8	≈	
COc1c(NC(=O)c2ccc(NC(=O)c3ccc(NC(=O)[C@H](CC#N)NC(=O)c4ccc(NC(=O)/C(C)=C/c5ccc(O)cc5)cc4)cc3)c(OC)c2O)ccc(C(=O)O)c1O [Compound 1, albicidin]									MIC [2]: 0.125 µg/mL (≈ 0.148 µM); MIC [3]: 0.031 µg/mL (≈ 0.0368 µM); MIC [4]: 0.063 µg/mL (≈ 0.0747 µM); MIC [5]: ≥ 128 µg/mL; MIC [6]: 0.25 µg/mL (≈ 0.297 µM); MIC [7]: ≥ 128 µg/mL; MIC [8]: 4 µg/mL (≈ 4.75 µM); MIC [9]: 2 µg/mL (≈ 2.37 µM); MIC [10]: 2 µg/mL (≈ 2.37 µM); MIC [11]: 16 µg/mL (≈ 19 µM); MIC [12]: 2 µg/mL (≈ 2.37 µM); MIC [13]: 1 µg/mL (≈ 1.19 µM); half-life at 20 µM (in vitro; human): 60 min; half-life at 20 µM (in vitro; mouse): 30 min; IC50 (DNA gyrase): 40 nM; solubility at 20 h (physchem; pH 7.4, aqueous with cosolvent or surfactant or cyclodextrin): 5.53 µg/mL (≈ 6.56 µM); solubility kinetic at 20 h (physchem; pH 7.5, aqueous with cosolvent or surfactant or cyclodextrin): 5.53 µg/mL (≈ 6.56 µM); MIC [14]: 0.25 µg/mL (≈ 0.297 µM)
COc1c(NC(=O)c2ccc(NC(=O)[C@H](Cc3c[nH]nn3)NC(=O)c3ccc(NC(=O)/C(C)=C/c4ccc(O)cc4)cc3)cc2)ccc(C(=O)Nc2ccc(C(=O)O)cc2)c1O [Compound 14, reference compound]	0.25 (≈ 0.298 µM)	0.016 (≈ 0.0191 µM)	0.5 (≈ 0.596 µM)	0.125 (≈ 0.149 µM)	2 (≈ 2.38 µM)	1 (≈ 1.19 µM)	8	≈	
COc1c(NC(=O)c2ccc(NC(=O)c3ccc(NC(=O)[C@H](Cc4c[nH]nn4)NC(=O)c4ccc(NC(=O)/C(C)=C/c5cccnc5)cc4)cc3)c(OC)c2O)ccc(C(=O)O)c1O [Compound 4]		0.125 (≈ 0.144 µM)	2 (≈ 2.3 µM)	0.5 (≈ 0.575 µM)	32 (≈ 36.8 µM)	32 (≈ 36.8 µM)	8	↓	MIC (E. coli DSM 1116): 0.125 µg/mL (≈ 0.144 µM)
CN[C@@H]1C[C@H]2O[C@@](C)([C@@H]1OC)n1c3ccccc3c3c4c(c5c6ccccc6n2c5c31)C(=O)NC4 [Staurosporine, reference compound]									CC50 [15]: 5810 nM; GI50 [15]: 5.23 nM; TGI (total growth inhibition) (HepG2 cells): < 140 nM
COc1c(NC(=O)c2ccc(NC(=O)c3ccc(NC(=O)[C@H](Cc4c[nH]nn4)NC(=O)c4ccc(NC(=O)/C(C)=C/c5ccc(O)cc5)cc4)cc3)nc2)ccc(C(=O)O)c1O [Compound 10]	0.063 (≈ 0.075 µM)	0.016 (≈ 0.0191 µM)	2 (≈ 2.38 µM)	0.063 (≈ 0.075 µM)	32 (≈ 38.1 µM)	2 (≈ 2.38 µM)	2	↓	MIC (M. luteus DSM1790): 32.0 µg/mL (≈ 38.1 µM)
COc1c(NC(=O)c2ccc(NC(=O)[C@H](Cc3c[nH]nn3)NC(=O)c3ccc(NC(=O)/C(C)=C/c4ccc(O)cc4)cc3)cc2)ccc(C(=O)Nc2ccc(C(=O)O)cn2)c1O [Compound 13]		0.016 (≈ 0.0191 µM)	4 (≈ 4.76 µM)	0.125 (≈ 0.149 µM)	4 (≈ 4.76 µM)	4 (≈ 4.76 µM)	8	≈	MIC (E. coli DSM 1116): 0.125 µg/mL (≈ 0.149 µM); MIC (Gram-negative strains): 0.125 µg/mL (≈ 0.149 µM); MIC (Gram-positive strains): 4 µg/mL (≈ 4.76 µM)
